In publication PMC3606823 (Journal of biomolecular screening, 2012):
Where two headings read alike, the source gives them in different places.

Experiments:
human DDAH1 [1] = biological target: T1, human DDAH1 (Homo sapiens, UniProt O94760); experiment: Secondary fluorimetric CPM assay with SMTC as substrate; assay type: biochemical; details: for time-dependent inhibition (mode of inhibition): 50 μM compound, 30 nM enzyme, fluorometric CPM assay; for IC50: inhibition of human DDAH1, CPM assay, 30 nM DDAH, 100 μM SMTC; for confirmation as DDAH inhibitor in the validation assay: known DDAH inhibitors
T1 sequence (O94760 whole entry): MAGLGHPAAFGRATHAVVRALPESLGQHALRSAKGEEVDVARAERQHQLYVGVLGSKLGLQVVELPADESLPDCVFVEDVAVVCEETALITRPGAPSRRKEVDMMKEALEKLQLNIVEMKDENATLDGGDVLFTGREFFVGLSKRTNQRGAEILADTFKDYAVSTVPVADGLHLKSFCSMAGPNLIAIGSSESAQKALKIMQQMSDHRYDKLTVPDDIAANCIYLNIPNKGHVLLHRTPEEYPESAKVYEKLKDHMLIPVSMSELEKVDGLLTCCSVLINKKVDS

human DDAH1 [2] = biological target: T1, human DDAH1; experiment: Colorimetric L-citrulline assay with ADMA as substrate; assay type: biochemical
DDAH = details: enzyme isolated from rat kidney homogenates; cited from earlier work
human DDAH1 [3] = biological target: T1, human DDAH1; details: cited from earlier work
[4] = system: primary microvascular endothelial cells (HMVECs); experiment: L-citrulline assay in cell lysates; assay type: cell-based; details: 1 mM L-Arginine for 24 hours vs vehicle, p<0.05
[5] = screening with recombinant human DDAH1, assay format not given

For `CC(=O)[O][Hg][c]1ccccc1` [phenylmercuric acetate], the “time-dependent inhibition (mode of inhibition)” value (human DDAH1 [1]) was “progressive inhibition”, the IC50 (human DDAH1 [1]) was < 780 nM and the IC50 (human DDAH1 [2]; [5]) was < 780 nM.

In the case of `[Cl][Hg][Cl]` [mercury chloride], the “sensitivity of the enzyme to the compound” value (DDAH) is listed as “sensitive”.

In the case of `O=c1c2ccccc2[se]n1-c1ccccc1` [ebselen], the “confirmation as DDAH inhibitor in the validation assay” value (human DDAH1 [1]) is reported as “confirmed” and the IC50 (human DDAH1 [2]) is reported as 3900 nM.

Compound `C[CH2][Hg][S]c1ccccc1C(=O)[O-].[Na+]` [Thimerosal] has an IC50 (human DDAH1 [2]; [5]) of 460 nM.

`Cn1c(=O)c2[nH]cnc2n(C)c1=O.[CH2-]C(Cc1cccc2cc(C(=O)O)c(=O)oc12)OC.[Hg+2].[OH-]` (centres unmarked) [Cumertilin] showed an inhibition (human DDAH1 [2]; at 25μM, screening with recombinant human DDAH1) of 100%.

For `O=C(O)c1cc[c]([Hg][Cl])cc1` [chloromercuribenzoate, 4-chloromercuribenzoic acid], the “time-dependent inhibition (mode of inhibition)” value (human DDAH1 [1]) is given as “progressive inhibition”, the “confirmation as DDAH inhibitor in the validation assay” value (human DDAH1 [1]) is given as “confirmed” and the “sensitivity of the enzyme to the compound” value (DDAH) is given as “sensitive”.

With `CN=c1nc(-c2ccccc2)n(-c2ccccc2)s1` [SCH-202676] the IC50 (human DDAH1 [1]) was 13300 nM.

With `CN(C)C(N)=NCCC[C@H](N)C(=O)O` [ADMA, Asymmetric Dimethylarginine] the Km (human DDAH1 [2]) was 180 µM and the kcat (human DDAH1 [2]; ADMA as substrate, 0.3 μM DDAH, 500 μM ADMA, 4 hours at 37°C) was ~ 0.7 min^−1.

For `CSC(N)=NCCC[C@H](N)C(=O)O` [SMTC, S-methyl-L-thiocitrulline], the kcat (human DDAH1 [3]; SMTC as substrate at 100 μM) is listed as ~ 1 min^−1 and the Km (human DDAH1 [3]; SMTC as substrate) is listed as 1 µM.

With `N=C(N)NCCC[C@H](N)C(=O)O` [L-Arginine] the “amount of intracellular L-citrulline” value [4] was “increased the amount of intracellular L-citrulline significantly”.
